Laboratory results as given in patent publication US20240245649A1, “Method and Composition for Mimicking Caloric Restriction by Administration of Ergothioneine” (NANJING NUTRABUILDING BIO-TECH CO., LTD., priority 2021, published 2024).

Key:
[1] = test system: AKT and phospho-AKT (Ser473); assay: AKT and phospho-AKT (Ser473) protein levels in skeletal muscle after insulin stimulation, immunoblotting; type: in vivo, mice
Protocol: (§1) Mice group were named after the diet they consumed. Group A mice was fed ad libitum (control), and group B mice was on high-fat diet (HFD), Group C was fed restricted amount of the HFD diet to achieve caloric restriction (HFD+CR), and Group D was fed high-fat diet and supplemented with Ergothioneine (HFD+EGT), the concentration of Ergothioneine is 3.25 mg/kg. All groups of mice were housed individually, and fed for months of interventions and had free access to water. Health status was monitored during the intervention. At the end of each intervention, body composition, insulin sensitivity, blood glucose level, different blood parameters and lifespan of the mice were studied. After treatment, blood is taken to measure high-density lipoprotein (HDL), low-density lipoprotein (LDL) and HOmeostasis Model Assessment-Insulin Resistance (HOMA-IR). The HOMA-IR index was calculated using the following formula: HOMA-IR=[fasting glucose levels (mmol/L)]×[fasting serum insulin (mU/L)]/22.5. At the end of the experiment, AKT and phospho-AKT (Ser473) protein levels in skeletal muscle after 2 IU/kg insulin stimulation for 15 min were determined by immunoblotting (n=3-6). The concentrations of inflammatory cytokines including tumor necrosis factor-α (TNF-α) and interleukin (IL)-6, and oxidative stress markers including malonaldehyde (MDA) and superoxide dismutase (SOD) were detected by ELISA kits.

[2] = test system: high-fat diet (HFD) mice; assay: HOMA-IR (fasting glucose x fasting serum insulin /22.5) in high-fat diet mice; type: in vivo
Protocol: as §1

[3] = animals and humans, even at high doses; cited from earlier work
[4] = test system: tumor necrosis factor-α (TNF-α) and interleukin (IL)-6; assay: Inflammatory cytokines TNF-α and IL-6 by ELISA kits in high-fat diet mice; type: in vivo
Protocol: as §1

[5] = test system: high-fat diet (HFD) mice; assay: Blood LDL and HDL in high-fat diet mice supplemented with Ergothioneine; type: in vivo
Protocol: as §1

[6] = test system: malonaldehyde (MDA) and superoxide dismutase (SOD); assay: Oxidative stress markers MDA and SOD by ELISA kits in high-fat diet mice; type: in vivo
Protocol: as §1

For C[N+](C)(C)[C@@H](Cc1c[nH]c(=S)[nH]1)C(=O)[O-] [Ergothioneine], which “p-AKT/AKT increased by Ergothioneine to” value ([1]; broadest of the nested bounds printed (0.25, 0.35, 0.40, 0.45, 0.53, 0.60)) is on record?
The value was ≥ 0.25.

And the “insulin-stimulated AKT phosphorylation (p-AKT)/AKT relative protein expression” value ([1]; skeletal muscle, 2 IU/kg insulin for 15 min, HFD+EGT vs HFD group, FIG. 4)?
The value was “higher than HFD group”.

What about the HOMA-IR ([2]; HFD+EGT group vs HFD group, FIG. 3) of the same molecule?
Its HOMA-IR is “lower HOMA-IR than HFD group”.

What about the “HOMA-IR decreased by Ergothioneine to” value ([2]; broadest of the nested bounds printed (28, 26, 24, 22, 20, 15)) of the same molecule?
The value was ≤ 28.

What about the “toxicity or adverse effects associated with administration” value [3] of the same molecule?
Its value is “no toxicity or adverse effects”.

What about the “content of TNF-α” value ([4]; HFD+EGT group compared with HFD group, FIG. 5) of the same molecule?
The value was “remarkably decreased”.

And the “content of IL-6” value ([4]; HFD+EGT group compared with HFD group, FIG. 6)?
The value was “remarkably decreased”.

What about the “level of IL-6 decreased by Ergothioneine to” value ([4]; broadest of the nested bounds printed (38, 35, 30, 28, 26, 22)) of the same molecule?
Its value is ≤ 38 pg/mL.

And the “level of TNF-α decreased by Ergothioneine to” value ([4]; broadest of the nested bounds printed (40, 38, 35, 32, 30, 28, 26))?
The value was ≤ 40 pg/mL.

What about the “level of LDL” value ([5]; HFD+EGT (Group D), Ergothioneine 3.25 mg/kg, vs HFD group, FIG. 1) of the same molecule?
Its value is “significantly decreased”.

And the “level of HDL” value ([5]; HFD+EGT (Group D), Ergothioneine 3.25 mg/kg, vs HFD group, FIG. 2)?
The value was “significantly increased”.

And the “LDL level decreased by Ergothioneine to” value ([5]; broadest of the nested bounds printed (24, 22, 20, 18, 15))?
Its value is ≤ 24 mg/dL.

What about the “HDL level increased by Ergothioneine to” value ([5]; broadest of the nested bounds printed (40, 42, 44, 46, 48, 50)) of the same molecule?
The value was ≥ 40 mg/dL.

What about the MDA expression ([6]; EGT compared with HFD group, FIG. 7) of the same molecule?
The MDA expression was “reduction of MDA expression”.

And the SOD expression ([6]; EGT compared with HFD group, FIG. 8)?
Its SOD expression is “elevation of SOD expression”.

What about the “level of MDA decreased by Ergothioneine to” value ([6]; broadest of the nested bounds printed (15, 13, 12, 11, 10, 8)) of the same molecule?
Its value is ≤ 15 nmol/mL.

And the “level of SOD increased by Ergothioneine to” value ([6]; broadest of the nested bounds printed (45, 48, 50, 51, 52, 55))?
The value was ≥ 45 U/mL.
